Laboratory results from the supplement of paper PMC10307832.

Tests used:
Assay in all cases: relative viability (nuclei count vs DMSO), 5 days (fraction); higher = more cells survive
NCI-H1650 = test system: NCI-H1650
Outline: (§1)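 Relative viability divides the nuclei count in treated wells by that in vehicle wells. Lung cancer cell lines were seeded in 1536-well plates, dosed by pin tool the next day, and fixed and stained after 5 days in one step with final 0.05% Triton X-100, 1% formaldehyde and 1 ug/ml Hoechst. Dosing was a single drug or a fixed anchor-drug dose plus five library-drug doses (not always all listed) in √10 steps, and values are medians of duplicate plates imaged at 4×.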

NCI-H1793 = test system: NCI-H1793
Outline: as §1

NCI-H1944 = test system: NCI-H1944
Outline: as §1

NCI-H2087 = test system: NCI-H2087
Outline: as §1

NCI-H2228 = test system: NCI-H2228
Outline: as §1

NCI-H2405 = test system: NCI-H2405
Outline: as §1

NCI-H3122 = test system: NCI-H3122
Outline: as §1

NCI-H322M = test system: NCI-H322M
Outline: as §1

NCI-H647 = test system: NCI-H647
Outline: as §1

NCI-H727 = test system: NCI-H727
Outline: as §1

RERF-LC-KJ = test system: RERF-LC-KJ
Outline: as §1

SK-LU-1 = test system: SK-LU-1
Outline: as §1

SMILES: CC1(C)CCC(c2ccc(Cl)cc2)=C(CN2CCN(c3ccc(C(=O)NS(=O)(=O)c4ccc(N[C@H](CCN5CCOCC5)CSc5ccccc5)c(S(=O)(=O)C(F)(F)F)c4)cc3)CC2)C1 [Navitoclax] + O=C(c1cc(Cc2n[nH]c(=O)c3ccccc23)ccc1F)N1CCN(C(=O)C2CC2)CC1 [Olaparib] (partner 8 µM)
- relative viability (NCI-H1650; first compound 0.005 µM): 0.67
- relative viability (NCI-H1650; first compound 0.01581 µM): 0.829
- relative viability (NCI-H1650; first compound 0.05 µM): 0.803
- relative viability (NCI-H1650; first compound 0.1581 µM): 0.784
- relative viability (NCI-H1650; first compound 0.5 µM): 0.649
- relative viability (NCI-H1793; first compound 0.005 µM): 0.903
- relative viability (NCI-H1793; first compound 0.01581 µM): 1.05
- relative viability (NCI-H1793; first compound 0.1581 µM): 0.885
- relative viability (NCI-H1793; first compound 0.5 µM): 0.684
- relative viability (NCI-H1944; first compound 0.005 µM): 0.383
- relative viability (NCI-H1944; first compound 0.01581 µM): 0.403
- relative viability (NCI-H1944; first compound 0.1581 µM): 0.412
- relative viability (NCI-H1944; first compound 0.5 µM): 0.401
- relative viability (NCI-H2087; first compound 0.005 µM): 0.69
- relative viability (NCI-H2087; first compound 0.01581 µM): 0.632
- relative viability (NCI-H2087; first compound 0.1581 µM): 0.638
- relative viability (NCI-H2087; first compound 0.5 µM): 0.598
- relative viability (NCI-H2228; first compound 0.005 µM): 0.941
- relative viability (NCI-H2228; first compound 0.01581 µM): 0.754
- relative viability (NCI-H2228; first compound 0.1581 µM): 0.758
- relative viability (NCI-H2228; first compound 0.5 µM): 0.638
- relative viability (NCI-H2405; first compound 0.005 µM): 0.803
- relative viability (NCI-H2405; first compound 0.01581 µM): 0.881
- relative viability (NCI-H2405; first compound 0.05 µM): 0.953
- relative viability (NCI-H2405; first compound 0.1581 µM): 0.801
- relative viability (NCI-H2405; first compound 0.5 µM): 0.739
- relative viability (NCI-H3122; first compound 0.005 µM): 0.605
- relative viability (NCI-H3122; first compound 0.01581 µM): 0.577
- relative viability (NCI-H3122; first compound 0.05 µM): 0.576
- relative viability (NCI-H3122; first compound 0.1581 µM): 0.655
- relative viability (NCI-H3122; first compound 0.5 µM): 0.597
- relative viability (NCI-H322M; first compound 0.005 µM): 0.8
- relative viability (NCI-H322M; first compound 0.01581 µM): 0.984
- relative viability (NCI-H322M; first compound 0.05 µM): 0.754
- relative viability (NCI-H322M; first compound 0.1581 µM): 0.725
- relative viability (NCI-H322M; first compound 0.5 µM): 0.934
- relative viability (NCI-H647; first compound 0.005 µM): 0.47
- relative viability (NCI-H647; first compound 0.01581 µM): 0.605
- relative viability (NCI-H647; first compound 0.05 µM): 0.498
- relative viability (NCI-H647; first compound 0.1581 µM): 0.471
- relative viability (NCI-H647; first compound 0.5 µM): 0.288
- relative viability (NCI-H727; first compound 0.005 µM): 0.774
- relative viability (NCI-H727; first compound 0.01581 µM): 0.769
- relative viability (NCI-H727; first compound 0.05 µM): 0.738
- relative viability (NCI-H727; first compound 0.1581 µM): 0.559
- relative viability (NCI-H727; first compound 0.5 µM): 0.721
- relative viability (RERF-LC-KJ; first compound 0.005 µM): 0.887
- relative viability (RERF-LC-KJ; first compound 0.01581 µM): 0.796
- relative viability (RERF-LC-KJ; first compound 0.05 µM): 0.917
- relative viability (RERF-LC-KJ; first compound 0.1581 µM): 0.861
- relative viability (RERF-LC-KJ; first compound 0.5 µM): 0.983
- relative viability (SK-LU-1; first compound 0.005 µM): 0.613
- relative viability (SK-LU-1; first compound 0.01581 µM): 0.474
- relative viability (SK-LU-1; first compound 0.05 µM): 0.329
- relative viability (SK-LU-1; first compound 0.1581 µM): 0.424
- relative viability (SK-LU-1; first compound 0.5 µM): 0.338
